Measurements: patent publication US9987333B2, “Method for suppressing malignant tumor metastasis” (Shionogi & Co., Ltd., priority 2012, dated 2018)

Assays:
Mouse melanoma B16-F10 [1] = test: Tail vein injection metastasis test, mouse melanoma B16-F10 (Example 1); type: in vivo, mice
Method: Six-week-old male C56BL/6N mice (purchased from Japan SLC, Inc.) were used. Mouse melanoma B16-F10 was purchased from ATCC, and cultured in DMEM (Life Technologies Corp.) containing 10% FCS under 5% CO2 at 37° C. The cells in a subconfluent state were treated with EDTA-trypsin, centrifuged, and then suspended in serum free DMEM so as to be 5×10^6 cells/mL. The melanoma cell suspension (100 μL/mouse, 5×10^5 cells) was injected to the tail vein of the mice.
For the CDDP group, 5 mg/kg of CDDP was injected, as pretreatment, to the tail vein of the mice 2 days before the injection of the melanoma cells into the tail vein. For the control group, an osmotic pump containing 0.9% physiological saline was subcutaneously implanted in the back of each mouse on the day before the injection of the melanoma cells into the tail vein. Similarly, for the adrenomedullin group, an osmotic pump containing adrenomedullin prepared for administration at 0.05 μg/kg/min was subcutaneously implanted into each mouse, and for the ghrelin group, an osmotic pump containing ghrelin prepared for administration at 0.08 μg/kg/min was subcutaneously implanted into each mouse. The tail vein injection of the melanoma cells was performed as above and the drug administration was continued for 2 weeks. The condition of the lung metastasis of the tumor cells 2 weeks after the tumor cell injection was observed (FIG. 1).
To the angiotensin II receptor antagonist group, a 0.5% methylcellulose aqueous solution prepared so as to contain 2 mg/kg or 8 mg/kg of telmisartan was orally given for 4 days before the start of the experiment (before the injection of tumor cells to mice), and to the pitavastatin group, a 0.5% methylcellulose aqueous solution prepared so as to contain 20 mg/kg of pitavastatin was orally given for the same period. After the injection of tumor cells, the oral intake of methylcellulose aqueous solutions containing telmisartan or pitavastatin in the above doses in the angiotensin II receptor antagonist group and the pitavastatin group was continued until the end of the experiment. To the control group, a 0.5% methylcellulose aqueous solution not containing any of the agents was orally given before the start of the experiment. Also, as reference example, angiotensin II was administered at 1 μg/kg/min, and then the experiment was conducted in the same way. The sample size of each group was n=5.
In contrast, in both of the telmisartan 2 mg/kg group and the telmisartan 8 mg/kg group, the exacerbation by CDDP was suppressed. The telmisartan 2 mg/kg (CDDP group) and the telmisartan 8 mg/kg (CDDP group) shown in FIGS. 3 and 4 are groups to which 2 mg/kg or 8 mg/kg of telmisartan was given in the manner described above before CDDP was injected as pretreatment. The pitavastatin (CDDP group) is the group to which pitavastatin was given in the manner described above before CDDP was injected as pretreatment.

Mouse melanoma B16-F10 [2] = test: Tail vein injection metastasis test, mouse melanoma B16-F10, CDDP pretreatment with angiotensin II receptor antagonists (Example 2); type: in vivo, mice; conditions: 14 days; for exacerbation of lung metastasis caused by CDDP: oral, with CDDP 5 mg/kg, valsartan 40, losartan 30, olmesartan medoxomil 5, azilsartan 10, candesartan cilexetil 8, irbesartan 100 mg/kg
Method: Eight-week-old male C57BL6 mice (purchased from Japan SLC, Inc.) were used. Mouse melanoma B16-F10 was purchased from ATCC, and cultured in DMEM (Life Technologies Corp.) containing 10% FCS under 5% CO2 at 37° C. The cells in a subconfluent state were treated with EDTA-trypsin, centrifuged, and then suspended in serum free DMEM so as to be 5×10^6 cells/mL. The melanoma cell suspension (100 μL/mouse, […]) was injected to the tail vein of the mice. As pretreatment, 5 mg/kg of cisplatin (CDDP) was injected to the tail vein of the mice 2 days before the injection of the melanoma cells into the tail vein. As an angiotensin II receptor antagonist, used were valsartan (trade name: Diovan made by Novartis Pharma K.K.), losartan (trade name: Nu-Lotan made by MSD K.K.), olmesartan medoxomil (trade name: Olmetecmade by Daiichi Sankyo Co., Ltd.), azilsartan (trade name: Azilva made by Takeda Pharmaceutical Co., Ltd.), candesartan cilexetil (trade name: Blopress made by Takeda Pharmaceutical Co., Ltd.), and irbesartan (trade name: Avapro made by Sumitomo Dainippon Pharma Co., Ltd.). To the angiotensin II receptor antagonist group, a 0.5% methylcellulose aqueous solution prepared so as to contain valsartan (40 mg/kg), losartan (30 mg/kg), olmesartan medoxomil (5 mg/kg), azilsartan (10 mg/kg), candesartan cilexetil (8 mg/kg), or irbesartan (100 mg/kg) was orally given for 4 days before the start of the experiment (before the injection of tumor cells to mice). After the injection of tumor cells, the oral intake of methylcellulose aqueous solutions containing telmisartan or pitavastatin in the above doses in the angiotensin II receptor antagonist group and the pitavastatin group was continued until the end of the experiment. To the control group, a 0.5% methylcellulose aqueous solution not containing any of the agents was orally given before the start of the experiment. The sample size of each group was n=5. The condition of the lung metastasis of the tumor cells 2 weeks (14 days) after the tumor cell injection was observed.

[3] = tested on: Human lung arterial microvascular endothelial cells; test: Adhesion of A549-GFP human lung cancer cells to human lung arterial microvascular endothelial cells in co-culture (Example 3); type: cell-based; conditions: 3 h co-culture
Method: Human lung arterial microvascular endothelial cells were cultured to confluence, losartan was added thereto (to a final concentration of 5×10^−6 M), and 2 hours later, phosphate buffered saline (PBS) or cisplatin (CDDP) was added (to a final concentration of 5 μM). An hour later, the culture medium was replaced with a fresh culture medium (Medium 199 containing 1% BSA). To this, a suspension of fluorescently-labeled A549 human lung cancer cells (1×10^5 cells) was added, and the cells were co-cultured for 3 hours. After the co-culture, non-adherent cancer cells were washed out with cold PBS, and then 15-minute fixation with 4% formalin was performed. […] In FIG. 9A, spots which appear gray (actually green) are fluorescently-labeled A549-GFP human lung cancer cells. In FIG. 9B, white bars are for the control (without losartan pretreatment), and black bars are for the cases with losartan pretreatment. The vertical axis indicates the number of cancer cells that adhered (*: P<0.05).
Human lung arterial microvascular endothelial cells (manufactured by Lonza Japan) were cultured to confluence, losartan was added thereto (to a final concentration of 5×10^−6 M), and 2 hours later, phosphate buffered saline (PBS) or cisplatin (CDDP) was added (to a final concentration of 5 μM). […]

tumor = conditions: Non Patent Literature 27; cited from earlier work
renal cell carcinoma = conditions: Non Patent Literature 23; cited from earlier work
colon cancer cells = conditions: Non Patent Literature 24; cited from earlier work
E select in = conditions: Non Patent Literature 29; cited from earlier work
[4] = tested on: human umbilical vein endothelial cells (HUVECs); conditions: Non Patent Literature 29; cited from earlier work

[NH2][Pt]([NH2])([Cl])[Cl] [CDDP, cisplatin]
lung metastasis of melanoma (number of nodules formed in the lungs) (Mouse melanoma B16-F10 [1]; CDDP 5 mg/kg tail vein 2 days before melanoma injection, compared to the control group): significantly increased | tumor metastasis (number of lung nodules) (Mouse melanoma B16-F10 [2]; CDDP 5 mg/kg tail vein 2 days before melanoma injection, vs control): augmented | number of cancer cells adhered to the vascular endothelial cells ([3]; 1-hour pretreatment with 5 μM CDDP): increased

CCOc1nc2cccc(C(=O)O)c2n1Cc1ccc(-c2ccccc2-c2nc(=O)o[nH]2)cc1 [azilsartan]
exacerbation of lung metastasis caused by CDDP (Mouse melanoma B16-F10 [2]): significantly suppressed

CCOc1nc2cccc(C(=O)OC(C)OC(=O)OC3CCCCC3)c2n1Cc1ccc(-c2ccccc2-c2nn[nH]n2)cc1 (stereo not shown) [candesartan cilexetil]
exacerbation of lung metastasis caused by CDDP (Mouse melanoma B16-F10 [2]): significantly suppressed | angiogenesis and metastasis of a tumor (tumor): suppressed

CCCCC1=NC2(CCCC2)C(=O)N1Cc1ccc(-c2ccccc2-c2nnn[nH]2)cc1 [irbesartan]
exacerbation of lung metastasis caused by CDDP (Mouse melanoma B16-F10 [2]): significantly suppressed

CCCCc1nc(Cl)c(CO)n1Cc1ccc(-c2ccccc2-c2nn[nH]n2)cc1 [losartan]
exacerbation of lung metastasis caused by CDDP (Mouse melanoma B16-F10 [2]): significantly suppressed | adhesion of cancer cells to the vascular endothelial cells ([3]; losartan 5×10^−6 M 2 hours before 5 μM CDDP pretreatment): significantly suppressed | lung metastasis of renal cell carcinoma increased by cyclosporin (Cs) (renal cell carcinoma): suppressed | liver metastasis of colon cancer cells (colon cancer cells): suppressed

CC[C@H](C)C(=O)O[C@H]1C[C@@H](C)C=C2C=C[C@H](C)[C@H](CC[C@@H]3C[C@@H](O)CC(=O)O3)[C@H]21 [lovastatin]
E select in expression (E select in): inhibits | adhesion of colon cancer cells to human umbilical vein endothelial cells (HUVECs) [4]: inhibits

CCCc1nc(C(C)(C)O)c(C(=O)OCc2oc(=O)oc2C)n1Cc1ccc(-c2ccccc2-c2nnn[nH]2)cc1 [olmesartan medoxomil]
exacerbation of lung metastasis caused by CDDP (Mouse melanoma B16-F10 [2]): significantly suppressed

O=C(O)C[C@H](O)C[C@H](O)/C=C/c1c(C2CC2)nc2ccccc2c1-c1ccc(F)cc1 [pitavastatin]
exacerbation of the lung metastasis by CDDP (Mouse melanoma B16-F10 [1]; pitavastatin 20 mg/kg orally before CDDP (5 mg/kg) pretreatment, 14 days): significantly suppressed

CCCc1nc2c(C)cc(-c3nc4ccccc4n3C)cc2n1Cc1ccc(-c2ccccc2C(=O)O)cc1 [telmisartan]
exacerbation of lung metastasis by CDDP (Mouse melanoma B16-F10 [1]; telmisartan 2 mg/kg orally before CDDP (5 mg/kg) pretreatment, 14 days): suppressed | exacerbation of lung metastasis by CDDP (Mouse melanoma B16-F10 [1]; telmisartan 8 mg/kg orally before CDDP (5 mg/kg) pretreatment, 14 days): suppressed | lung metastasis of melanoma (number of nodules formed in the lungs) (Mouse melanoma B16-F10 [1]; telmisartan 8 mg/kg orally, alone, 14 days after tumor cell injection, vs control): significantly suppressed

CCCCC(=O)N(Cc1ccc(-c2ccccc2-c2nnn[nH]2)cc1)[C@H](C(=O)O)C(C)C [valsartan]
exacerbation of lung metastasis caused by CDDP (Mouse melanoma B16-F10 [2]): significantly suppressed
